Key:
[1] = DRUGMATRIX: Phosphodiesterase PDE3 enzyme inhibition (substrate: [3H]cAMP + cAMP); format: tissue-based, Homo sapiens; settings: platelet; Not Active = under 50% inhibition at 10 µM
[2] = DRUGMATRIX: Nicotinic Acetylcholine radioligand binding (ligand: [125I] Epibatidine); format: cell membranes, Membrane; settings: imr-32; Not Active = under 50% inhibition at 10 µM
[3] = target: Kappa-type opioid receptor (Homo sapiens, UniProt P41145); test: DRUGMATRIX: Opiate kappa (OP2, KOP) radioligand binding (ligand: [3H] Diprenorphine); format: cell membranes, HEK293, Membrane; settings: hek293; Not Active = under 50% inhibition at 10 µM
Cannabinoid receptor 1 = Cannabinoid receptor 1 (Homo sapiens, UniProt P21554); format: cell membranes, Membrane; settings: chem-1; further: in other assays of this panel Not Active means under 50% inhibition at 10 µM
Cytochrome P450 2E1 = Cytochrome P450 2E1 (Homo sapiens, UniProt P05181); settings: bti-tn-5b1-4; further: in other assays of this panel Not Active means under 50% inhibition at 10 µM
[4] = target: T1, Vasoactive intestinal polypeptide receptor 1 (Homo sapiens, UniProt P32241); format: cell membranes, Membrane; settings: ht-29; further: in other assays of this panel Not Active means under 50% inhibition at 10 µM
T1 sequence (P32241 whole entry): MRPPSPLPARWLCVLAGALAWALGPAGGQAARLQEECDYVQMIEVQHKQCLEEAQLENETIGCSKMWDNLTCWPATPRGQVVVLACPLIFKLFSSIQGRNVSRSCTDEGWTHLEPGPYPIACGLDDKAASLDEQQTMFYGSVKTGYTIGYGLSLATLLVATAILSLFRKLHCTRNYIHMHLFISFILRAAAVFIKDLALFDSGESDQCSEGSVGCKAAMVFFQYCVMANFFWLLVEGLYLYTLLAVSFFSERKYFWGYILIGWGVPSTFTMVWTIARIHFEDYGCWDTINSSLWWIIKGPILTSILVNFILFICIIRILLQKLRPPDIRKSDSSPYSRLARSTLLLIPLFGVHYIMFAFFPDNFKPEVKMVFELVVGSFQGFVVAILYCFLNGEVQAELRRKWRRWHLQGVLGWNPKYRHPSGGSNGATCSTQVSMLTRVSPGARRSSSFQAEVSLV

Histamine H2 receptor = Histamine H2 receptor (Homo sapiens, UniProt P25021); format: cell membranes, CHO-K1, Membrane; settings: cho-k1; further: in other assays of this panel Not Active means under 50% inhibition at 10 µM
[5] = target: T2, Cholecystokinin receptor type A (Homo sapiens, UniProt P32238); format: cell membranes, Membrane; settings: 1321-n1; further: in other assays of this panel Not Active means under 50% inhibition at 10 µM
T2 sequence (P32238 whole entry): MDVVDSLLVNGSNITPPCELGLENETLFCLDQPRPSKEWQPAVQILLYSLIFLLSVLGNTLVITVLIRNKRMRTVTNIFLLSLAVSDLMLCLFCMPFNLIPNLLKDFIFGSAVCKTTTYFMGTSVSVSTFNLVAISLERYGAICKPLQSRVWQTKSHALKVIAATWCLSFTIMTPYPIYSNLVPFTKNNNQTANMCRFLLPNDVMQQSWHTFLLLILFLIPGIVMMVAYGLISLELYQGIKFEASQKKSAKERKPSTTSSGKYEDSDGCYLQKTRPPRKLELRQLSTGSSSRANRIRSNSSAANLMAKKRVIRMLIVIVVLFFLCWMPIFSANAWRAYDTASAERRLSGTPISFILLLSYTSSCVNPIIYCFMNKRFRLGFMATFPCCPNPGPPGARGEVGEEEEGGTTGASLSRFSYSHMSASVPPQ

[6] = target: cGMP-specific 3',5'-cyclic phosphodiesterase (Homo sapiens, UniProt O76074); test: DRUGMATRIX: Phosphodiesterase PDE5 enzyme inhibition (substrate: [3H]cGMP + cGMP); format: tissue-based; settings: platelet; Not Active = under 50% inhibition at 10 µM

Sequence of Cannabinoid receptor 1 (P21554 whole entry): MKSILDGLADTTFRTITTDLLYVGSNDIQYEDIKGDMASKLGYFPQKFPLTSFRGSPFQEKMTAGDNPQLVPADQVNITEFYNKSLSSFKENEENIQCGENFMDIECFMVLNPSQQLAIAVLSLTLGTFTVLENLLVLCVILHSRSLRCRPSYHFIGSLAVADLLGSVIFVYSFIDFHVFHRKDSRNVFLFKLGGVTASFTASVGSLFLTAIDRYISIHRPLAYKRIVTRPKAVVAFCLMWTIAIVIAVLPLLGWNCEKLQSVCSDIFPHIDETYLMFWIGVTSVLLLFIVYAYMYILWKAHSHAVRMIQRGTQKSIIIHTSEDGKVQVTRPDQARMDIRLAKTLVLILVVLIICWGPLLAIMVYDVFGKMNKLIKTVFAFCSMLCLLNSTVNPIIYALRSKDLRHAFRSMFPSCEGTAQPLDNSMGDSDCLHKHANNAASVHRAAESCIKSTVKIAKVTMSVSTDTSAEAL
Sequence of Kappa-type opioid receptor (P41145 whole entry): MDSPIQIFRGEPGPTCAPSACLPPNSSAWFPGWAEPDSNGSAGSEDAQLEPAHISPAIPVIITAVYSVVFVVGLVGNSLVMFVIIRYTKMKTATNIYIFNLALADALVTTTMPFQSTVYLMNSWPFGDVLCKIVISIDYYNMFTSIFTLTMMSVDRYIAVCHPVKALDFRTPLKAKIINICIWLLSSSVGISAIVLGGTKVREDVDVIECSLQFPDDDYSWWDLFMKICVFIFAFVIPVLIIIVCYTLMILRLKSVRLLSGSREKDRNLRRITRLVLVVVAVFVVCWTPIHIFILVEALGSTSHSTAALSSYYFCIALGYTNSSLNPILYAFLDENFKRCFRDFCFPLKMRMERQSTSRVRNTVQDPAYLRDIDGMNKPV
Sequence of Cytochrome P450 2E1 (P05181 whole entry): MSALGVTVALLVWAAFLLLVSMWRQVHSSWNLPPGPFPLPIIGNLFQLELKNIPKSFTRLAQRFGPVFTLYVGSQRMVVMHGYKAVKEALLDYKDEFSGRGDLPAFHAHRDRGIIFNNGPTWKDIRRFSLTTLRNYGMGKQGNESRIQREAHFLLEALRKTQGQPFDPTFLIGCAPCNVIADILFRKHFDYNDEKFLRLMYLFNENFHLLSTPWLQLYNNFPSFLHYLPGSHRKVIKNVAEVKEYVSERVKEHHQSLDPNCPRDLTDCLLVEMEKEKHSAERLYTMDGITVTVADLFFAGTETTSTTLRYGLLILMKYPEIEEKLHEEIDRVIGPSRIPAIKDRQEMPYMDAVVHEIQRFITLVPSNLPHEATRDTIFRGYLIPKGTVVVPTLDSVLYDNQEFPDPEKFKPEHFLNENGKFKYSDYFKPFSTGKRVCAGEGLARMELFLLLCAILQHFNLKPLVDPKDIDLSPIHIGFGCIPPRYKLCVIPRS
Sequence of Histamine H2 receptor (P25021 whole entry): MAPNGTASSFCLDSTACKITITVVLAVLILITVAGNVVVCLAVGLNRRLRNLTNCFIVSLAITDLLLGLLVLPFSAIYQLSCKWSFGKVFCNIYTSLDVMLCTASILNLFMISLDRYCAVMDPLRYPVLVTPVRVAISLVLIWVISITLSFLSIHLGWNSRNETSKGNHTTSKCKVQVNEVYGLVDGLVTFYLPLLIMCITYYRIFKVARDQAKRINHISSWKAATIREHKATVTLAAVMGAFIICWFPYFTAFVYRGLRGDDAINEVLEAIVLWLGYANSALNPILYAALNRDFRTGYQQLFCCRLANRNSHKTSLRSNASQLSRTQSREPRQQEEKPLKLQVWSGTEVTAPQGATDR

Nn1nnc2ccccc21
Not Active: IC50 [1] | Ki [1] | IC50 [2] | Ki [2] | IC50 [3] | IC50 (Cannabinoid receptor 1) | IC50 (Cytochrome P450 2E1) | Ki (Cytochrome P450 2E1) | IC50 [4] | IC50 (Histamine H2 receptor) | IC50 [5] | IC50 [6]

CC[C@]1(O)CC[C@H]2[C@@H]3CCC4=CCCC[C@@H]4[C@H]3CC[C@@]21C
Not Active: IC50 [1] | Ki [1] | IC50 [2] | Ki [2] | IC50 [3] | IC50 (Cannabinoid receptor 1) | IC50 (Cytochrome P450 2E1) | Ki (Cytochrome P450 2E1) | IC50 [4] | IC50 (Histamine H2 receptor) | IC50 [5] | IC50 [6]

CCOC(=O)[C@H](CCc1ccccc1)N[C@@H](C)C(=O)N1Cc2ccccc2C[C@H]1C(=O)O
Not Active: IC50 [1] | Ki [1] | IC50 [2] | Ki [2] | IC50 [3] | IC50 (Cannabinoid receptor 1) | IC50 (Cytochrome P450 2E1) | Ki (Cytochrome P450 2E1) | IC50 [4] | IC50 (Histamine H2 receptor) | IC50 [5] | IC50 [6]

O=C(c1ccccc1Cl)N1CCC(Cc2ccccc2)CC1
Not Active: IC50 [1] | Ki [1] | IC50 [2] | Ki [2] | IC50 [3] | IC50 (Cannabinoid receptor 1) | IC50 (Cytochrome P450 2E1) | Ki (Cytochrome P450 2E1) | IC50 [4] | IC50 (Histamine H2 receptor) | IC50 [5] | IC50 [6]

CCOC(=O)[C@H](CCc1ccccc1)N[C@@H](C)C(=O)N1CCC[C@H]1C(=O)O
Not Active: IC50 [1] | Ki [1] | IC50 [2] | Ki [2] | IC50 [3] | IC50 (Cannabinoid receptor 1) | IC50 (Cytochrome P450 2E1) | Ki (Cytochrome P450 2E1) | IC50 [4] | IC50 (Histamine H2 receptor) | IC50 [5] | IC50 [6]

C=C1/C(=C\C=C2/CCC[C@]3(C)[C@@H]([C@H](C)CCCC(C)C)CC[C@@H]23)C[C@@H](O)C[C@@H]1O [ALFACALCIDOL]
Not Active: IC50 [1] | Ki [1] | IC50 [2] | Ki [2] | IC50 [3] | IC50 (Cannabinoid receptor 1) | IC50 (Cytochrome P450 2E1) | Ki (Cytochrome P450 2E1) | IC50 [4] | IC50 (Histamine H2 receptor) | IC50 [5] | IC50 [6]

CCCCCC[C@H]1C(=O)O[C@H](C)[C@H](NC(=O)c2cccc(NC=O)c2O)C(=O)O[C@@H](C)[C@@H]1OC(=O)CC(C)C [ANTIMYCIN A]
Not Active: IC50 [1] | Ki [1] | IC50 [2] | Ki [2] | IC50 [3] | IC50 (Cannabinoid receptor 1) | IC50 (Cytochrome P450 2E1) | Ki (Cytochrome P450 2E1) | IC50 [4] | IC50 (Histamine H2 receptor) | IC50 [5] | IC50 [6]

CO[C@H]1[C@@H](O)[C@H](N)[C@@H](O[C@H]2O[C@H]([C@H](C)N)CC[C@H]2N)[C@H](O)[C@@H]1N(C)C(=O)CN [ASTROMICIN]
Not Active: IC50 [1] | Ki [1] | IC50 [2] | Ki [2] | IC50 [3] | IC50 (Cannabinoid receptor 1) | IC50 (Cytochrome P450 2E1) | Ki (Cytochrome P450 2E1) | IC50 [4] | IC50 (Histamine H2 receptor) | IC50 [5] | IC50 [6]

[N-]=[N+]=CC(=O)OC[C@H](N)C(=O)O [AZASERINE]
Not Active: IC50 [1] | Ki [1] | IC50 [2] | Ki [2] | IC50 [3] | IC50 (Cannabinoid receptor 1) | IC50 (Cytochrome P450 2E1) | Ki (Cytochrome P450 2E1) | IC50 [4] | IC50 (Histamine H2 receptor) | IC50 [5] | IC50 [6]

CC[C@H]1OC(=O)[C@H](C)[C@@H](O[C@H]2C[C@@](C)(OC)[C@@H](O)[C@H](C)O2)[C@H](C)[C@@H](O[C@@H]2O[C@H](C)C[C@H](N(C)C)[C@H]2O)[C@](C)(O)C[C@@H](C)CN(C)[C@H](C)[C@@H](O)[C@]1(C)O [AZITHROMYCIN]
Not Active: IC50 [1] | Ki [1] | IC50 [2] | Ki [2] | IC50 [3] | IC50 (Cannabinoid receptor 1) | IC50 (Cytochrome P450 2E1) | Ki (Cytochrome P450 2E1) | IC50 [4] | IC50 (Histamine H2 receptor) | IC50 [5] | IC50 [6]

CC(C)(C)c1ccc(S(=O)(=O)/C=C/C#N)cc1 [BAY-11-7085]
Not Active: IC50 [1] | Ki [1] | IC50 [2] | Ki [2] | IC50 [3] | IC50 (Cannabinoid receptor 1) | IC50 (Cytochrome P450 2E1) | Ki (Cytochrome P450 2E1) | IC50 [4] | IC50 (Histamine H2 receptor) | IC50 [5] | IC50 [6]

CCc1oc2ccccc2c1C(=O)c1cc(Br)c(O)c(Br)c1 [BENZBROMARONE]
Not Active: IC50 [1] | Ki [1] | IC50 [2] | Ki [2] | IC50 [3] | IC50 (Cannabinoid receptor 1) | IC50 (Cytochrome P450 2E1) | Ki (Cytochrome P450 2E1) | IC50 [4] | IC50 (Histamine H2 receptor) | IC50 [5] | IC50 [6]

C/C=C\c1ccc(O)c(OC)c1 [ISOEUGENOL]
Not Active: IC50 [1] | Ki [1] | IC50 [2] | Ki [2] | IC50 [3] | IC50 (Cannabinoid receptor 1) | IC50 [4] | IC50 (Histamine H2 receptor) | IC50 [5] | IC50 [6]
